Data taken from patent US8507481B2, “Benzoxazine oxazolidinone compounds, preparation methods and uses thereof” (Shanghai Institute of Materia Medica, Chinese Academy of …, priority 2010, dated 2013).
≈ marks a conversion by molar mass, not a printed value. Where “and” joins values, the source holds several entries; their conditions need not be identical. Identical values can stand only once. Like-named read-outs stand apart in the source and are kept apart here.

Key:
[1] = In vivo pharmacokinetic trial in rat (gavage and intravenous injection); set-up: species or system SD male rats
Protocol: The tested compound was Compound 7, using two administration routes (gavage and intravenous injection).
(§1) Gavage: four healthy SD male rats weighing 200-250 g were given a dose of 15 mg/kg, with an administered volume of 10 mL/kg. And the compound was prepared as 0.5% CMC—Na. The animals were fasted for 12 hours and had free access to water before administration, 0.3 mL of venous blood was sampled through retrobulbar venous plexus at 0.25, 0.5, 1, 0, 2.0, 3.0, 4.0, 5.0, 7.0, 9.0, 24, and 48 hours after administration and collected in heparinized test tubes, which is subjected to centrifugation at 3500 rpm for 10 min to separate the plasma, and stored at −20° C. for testing.
as §1, with “Intravenous injection: two” for “Gavage: four”, “using DMSO, Tween 80 and deionized water.” for “as 0.5% CMC—Na.”, “5 min, 15 min,” for “0.25,”, “1.0,” for “1, 0,”
Concentration of Compound 7 in plasma was determined using liquid chromatography-tandem mass spectrometry.

[2] = system: methicillin-resistant Staphylococcus aureus (MRSA); assay: In vivo antibacterial activity in mice infected with MRSA; set-up: species or system Kunming mice; conditions: for ED50: Staphylococcus aureus
Source text: Experimental strains: the bacteria used for infecting animals was methicillin-resistant Staphylococcus aureus (MRSA), which was clinically isolated pathogenic bacteria collected in Nanjing area in 2009, and re-identified by the API method.
Experimental animals: Healthy Kunming mice of SPF grade and weighing 18-22 g were chosen, and male and female were 50% each, and they were supplied by animal breeding office of Pharmacology Laboratory, China Pharmaceutical University.
Test method of infection and treatment: The experimental animals were evenly grouped by sex and weight, each group had 10 mice, including 50% of male and female, respectively. Intraperitoneal injection of bacteria solution was performed among animals at 0.5 mL/animal. One hour after infection, the tested drug solution (Compound 7 of the present invention and the positive control drug LZ) of different concentrations were given to each animal by oral gavage or intravenous injection at 0.5 mL/20 g, respectively. For mice receiving oral gavage, another gavage was given 4 hours after the first dose, observation was performed after administration, and death was recorded. An infected control group was set up for the same group, and the number of the deaths within seven days after infection was recorded.
Experimental data processing: median effective dose ED50 and 95% confidence limits were calculated by Bliss for in vivo protective effect of each tested drug among mice infected with tested strain.

[3] = system: Staphylococcus aureus sensitive strain (5 strains); assay: MIC by agar dilution, Staphylococcus aureus sensitive strains; format: cell-based; conditions: 35° C., 16 hours
Protocol: (§2) Test method: minimal inhibitory concentration (MIC) of series of compounds of the present invention and the positive control drug linezo lid against the tested strains was determined using agar dilution method (Antimicrob. Agents and Chemother., 40, 1996. 720-726). The bacteria was inoculated on the surface of agar plates with different drug concentrations using a multi-point inoculation instrument (Denley A400). Inoculum of each point was about 10^6 CFU/mL, and inoculation was performed at 35° C. for 16 hours to get observation. The minimal concentration of a drug contained in the plate medium without bacteria growth was considered as the minimal inhibitory concentration (MIC value) of the drug against bacteria.
(§3) Tested strains: the tested strains were clinically isolated pathogenic bacteria collected in the Nanjing area, and re-identified by conventional methods before use. 31 pathogenic bacteria are selected, and strain serial numbers were as following: six enterococci; five Staphylococcus aureus sensitive strains; five Staphylococcus epidermidis sensitive strains; six Staphylococcus aureus drug-resistant strains; five Staphylococcus epidermidis drug-resistant strains; four pneumococcus drug-resistant strains.
(§4) At first, tested compounds were added into 2 mL of DMSO, which could facilitate full dissolution, and then sterile double distilled water was added to a desired concentration; 20 mL MH medium in heat-melted to liquid was added to each of plates with drug solution, so that the final drug concentrations in the plates were 64, 32, 16, 8, 4, 2, 1, 0.5, 0.25, 0.125, 0.0625 and 0.031 μg/mL.
(§5) The positive control group was LZ (linezolid, trade name Zyvox, which was approved by the FDA in 2000 to be first launched in the United States and is the first and only oxazolidinone antibacterial drug permitted to be used in clinical practice at present).

[4] = system: Staphylococcus epidermidis drug-resistant strain (5 strains); assay: MIC by agar dilution, Staphylococcus epidermidis drug-resistant strains; format: cell-based; conditions: 35° C., 16 hours
Protocol: as §2, §3, §4, §5

[5] = system: Staphylococcus aureus drug-resistant strain (6 strains); assay: MIC by agar dilution, Staphylococcus aureus drug-resistant strains; format: cell-based; set-up: unit not given here; conditions: 35° C., 16 hours
Protocol: as §2, §3, §4, §5

[6] = system: Enterococcus (6 strains); assay: MIC by agar dilution, Enterococcus; format: cell-based; conditions: 35° C., 16 hours
Protocol: as §2, §3, §4, §5

[7] = system: Pneumococcus drug-resistant strain (4 strains); assay: MIC by agar dilution, pneumococcus drug-resistant strains; format: cell-based; set-up: unit not given here; conditions: 35° C., 16 hours
Protocol: as §2, §3, §4, §5

[8] = system: Staphylococcus epidermidis sensitive strain (5 strains); assay: MIC by agar dilution, Staphylococcus epidermidis sensitive strains; format: cell-based; set-up: unit not given here; conditions: 35° C., 16 hours
Protocol: as §2, §3, §4, §5

[9] = gavage 15 mg/kg, individual animals No. 1-4, 15 mg/kg
[10] = gavage 15 mg/kg, mean of 4 animals
[11] = intravenous injection 15 mg/kg, individual animals No. 5-6, 15 mg/kg
[12] = intravenous injection 15 mg/kg, mean of 2 animals
[13] = male, SD, plasma, iv, 15 mg/kg, intravenous injection 15 mg/kg, individual animals No. 5-6
[14] = male, SD, plasma, po, 15 mg/kg, gavage 15 mg/kg, individual animals No. 1-4
[15] = male, SD, plasma, po, 15 mg/kg, gavage 15 mg/kg, mean of 4 animals

Compound: CC(=O)NC[C@@H]1OC(=O)N2c3ccc(-c4ccc(C#N)nc4)cc3OC[C@@H]12 [Compound 7, N-(((3S,3aS)-7-(6-cyanopyridin-3-yl)-1-oxo-1,3,3a,4-tetrahydrobenzo[b]oxazole-[3,4-d][1,4]oxazin-3-yl)methyl)acetamide]
- metabolic properties ([1]; 15 mg/kg gavage and intravenous injection): good metabolic properties
- AUC0-t [1, 9]: 57191 ng·h/mL and 61593 ng·h/mL and 79448 ng·h/mL
- AUC0-∞ [1, 9]: 57255 ng·h/mL and 61983 ng·h/mL and 79622 ng·h/mL
- CLz [1, 9]: 3.73 mL/min/kg and 4.37 mL/min/kg and 4.03 mL/min/kg and 3.13 mL/min/kg
- Cmax [1, 9]: 3958 ng/mL and 4772 ng/mL and 6269 ng/mL
- MRT [1, 9]: 8.65 h and 8.79 h and 9.09 h
- Tmax [1, 9]: 2.0 h and 5.0 h
- Vz [1, 9]: 1.81 L/kg and 1.79 L/kg and 2.22 L/kg and 1.44 L/kg
- t1/2 [1, 9]: 4.74 h and 6.36 h and 5.31 h
- CLz [1, 10]: 3.82 mL/min/kg
- Vz [1, 10]: 1.82 L/kg
- Tmax ([1]; intravenous injection 15 mg/kg, individual animals No. 5-6): 2.0 h
- AUC0-t [1, 11]: 87218 ng·h/mL
- AUC0-∞ [1, 11]: 87475 ng·h/mL
- CLz [1, 11]: 3.28 mL/min/kg and 2.85 mL/min/kg
- MRT [1, 11]: 8.77 h
- Vz [1, 11]: 1.42 L/kg
- t1/2 [1, 11]: 5.72 h
- AUC0-∞ [1, 12]: 81844 ng·h/mL
- CLz [1, 12]: 3.07 mL/min/kg
- Tmax [1, 12]: 2.0 h
- t1/2 [1, 12]: 5.58 h
- AUC(0-inf) [1, 13]: 76200 ng·h/mL
- half-life [1, 13]: 5.44 h
- AUC0-t ([1]; male, SD, plasma, iv, 15 mg/kg, intravenous injection 15 mg/kg, individual animals No. 5-6, read-out: AUC0-t): 76100 ng·h/mL
- Cmax ([1]; male, SD, plasma, iv, 15 mg/kg, intravenous injection 15 mg/kg, individual animals No. 5-6, read-out: Cmax): 7510 ng/mL
- MRT ([1]; male, SD, plasma, iv, 15 mg/kg, intravenous injection 15 mg/kg, individual animals No. 5-6, read-out: MRT): 7.98 h
- Vd ([1]; male, SD, plasma, iv, 15 mg/kg, intravenous injection 15 mg/kg, individual animals No. 5-6, read-out: Vz): 1.55 L/kg
- AUC0-t ([1]; male, SD, plasma, iv, 15 mg/kg, intravenous injection 15 mg/kg, mean of 2 animals, read-out: AUC0-t): 81600 ng·h/mL
- Cmax ([1]; male, SD, plasma, iv, 15 mg/kg, intravenous injection 15 mg/kg, mean of 2 animals, read-out: Cmax): 7510 ng/mL
- MRT ([1]; male, SD, plasma, iv, 15 mg/kg, intravenous injection 15 mg/kg, mean of 2 animals, read-out: MRT): 8.37 h
- Vd ([1]; male, SD, plasma, iv, 15 mg/kg, intravenous injection 15 mg/kg, mean of 2 animals, read-out: Vz): 1.48 L/kg
- AUC(0-inf) [1, 14]: 67100 ng·h/mL
- half-life [1, 14]: 5.6 h
- AUC0-t ([1]; male, SD, plasma, po, 15 mg/kg, gavage 15 mg/kg, individual animals No. 1-4, read-out: AUC0-t): 66900 ng·h/mL
- Cmax ([1]; male, SD, plasma, po, 15 mg/kg, gavage 15 mg/kg, individual animals No. 1-4, read-out: Cmax): 5450 ng/mL
- MRT ([1]; male, SD, plasma, po, 15 mg/kg, gavage 15 mg/kg, individual animals No. 1-4, read-out: MRT): 7.96 h
- AUC(0-inf) [1, 15]: 66500 ng·h/mL
- half-life [1, 15]: 5.5 h
- AUC0-t ([1]; male, SD, plasma, po, 15 mg/kg, gavage 15 mg/kg, mean of 4 animals, read-out: AUC0-t): 66300 ng·h/mL
- Cmax ([1]; male, SD, plasma, po, 15 mg/kg, gavage 15 mg/kg, mean of 4 animals, read-out: Cmax): 5110 ng/mL
- MRT ([1]; male, SD, plasma, po, 15 mg/kg, gavage 15 mg/kg, mean of 4 animals, read-out: MRT): 8.62 h
- Tmax ([1]; male, SD, plasma, po, 15 mg/kg, gavage 15 mg/kg, mean of 4 animals, read-out: Tmax): 4 h
- bioavailability ([1]; male, SD, plasma, po, gavage 15 mg/kg, calculated as AUC0-t, read-out: F (absolute bioavailability)): 81.2%
- ED50 ([2]; MRSA): 5.53 mg/kg
- ED50 ([2]; MRSA, ip): 5.92 mg/kg
- in vivo activity compared with control drug LZ ([2]; mouse model infected with MRSA): significantly better than that of the control drug LZ

Compound: N#Cc1ccc(-c2ccc3c(c2)OC[C@H]2[C@@H](Cn4ccnn4)OC(=O)N32)cn1 [Compound 49, (3R,3aS)-3-((1H-1,2,3-triazol-1-yl)methyl)-7-(6-cyanopyridin-3-yl)-3a,4-dihydrobenzo[b]oxazole[3,4-d][1,4]oxazine-1(3H)-one]
- MIC, Staphylococcs aureus sensitive strain (5 strains) [3]: 500 µM (≈ 187 µg/mL)
- MIC, Staphylococcus epidermidis drug-resistant strain (5 strains) [4]: 250 µM (≈ 93.6 µg/mL)
- MIC, Staphylococcus aureus drug-resistant strain (6 strains) [5]: 0.25
- MIC, Enterococcus (6 strains) [6]: 500 µM (≈ 187 µg/mL)
- MIC, Pneumococcus drug-resistant strain (4 strains) [7]: 0.5
- MIC, Staphylococcus epidremidis sensitive strain (5 strains) [8]: 0.25

Compound: Cn1nnnc1-c1ccc(-c2ccc3c(c2)OC[C@H]2[C@@H](Cn4ccnn4)OC(=O)N32)cn1 [Compound 51, (3R,3aS)-3-((1H-1,2,3-triazol-1-yl)methyl)-7-(6-(1-methyl-1H-tetrazol-5-yl)pyridin-3-yl)-3a,4-dihydrobenzo[b]oxazole[3,4-d][1,4]oxazine-1(3H)-one]
- MIC, Staphylococcs aureus sensitive strain (5 strains) [3]: 250 µM (≈ 108 µg/mL)
- MIC, Staphylococcus epidermidis drug-resistant strain (5 strains) [4]: 500 µM (≈ 216 µg/mL)
- MIC, Staphylococcus aureus drug-resistant strain (6 strains) [5]: 0.5
- MIC, Enterococcus (6 strains) [6]: 500 µM (≈ 216 µg/mL)
- MIC, Pneumococcus drug-resistant strain (4 strains) [7]: 0.5
- MIC, Staphylococcus epidremidis sensitive strain (5 strains) [8]: 0.5

Compound: CC(=O)NC[C@H]1CN(c2ccc(N3CCOCC3)c(F)c2)C(=O)O1 [LZ, linezolid, reference compound]
- ED50 ([2]; ip, mice infected i.p. with MRSA, p.o (gavage 1 h after infection and again 4 h after first dose), deaths within seven days, read-out: ED50): 8.5 mg/kg
- ED50 ([2]; mice infected i.p. with MRSA, iv 1 h after infection, deaths within seven days, read-out: ED50): 8.51 mg/kg

Compound: N(((3S,3aS)-7-(6-(4-methyl piperazin-1-yl)pyridin-3-yl)-1-oxo-1,3,3a,4-tetrahydrobenzo[b]oxazole-[3,4-d][1,4]oxazin-3-yl)methyl)acetamide [Compound 62]
- MIC, Staphylococcs aureus sensitive strain (5 strains) [3]: 500 µM
- MIC, Staphylococcus epidermidis drug-resistant strain (5 strains) [4]: 500 µM
- MIC, Staphylococcus aureus drug-resistant strain (6 strains) [5]: 0.5
- MIC, Enterococcus (6 strains) [6]: 500 µM
- MIC, Pneumococcus drug-resistant strain (4 strains) [7]: 0.5
- MIC, Staphylococcus epidremidis sensitive strain (5 strains) [8]: 0.5
